Experimental data: the NIST ThermoML archive (doi:10.1016/j.jct.2010.10.016)

Test: xn = mol fraction of the nth substance listed
Details: 101 kPa, Liquid; for viscosity: Capillary tube (Ostwald / Ubbelohde) method; for mass density: Pycnometric method; for speed of sound: Resonance method

C[N+](=O)[O-] [nitromethane] + COCCO
Details	mass density [kg/m3]	speed of sound [m/s]	viscosity [mPa·s]
293.15 K, x1 = 0.05	970.66	1354.7	–
293.15 K, x1 = 0.0501	–	–	1.618
293.15 K, x1 = 0.0998	976.62	1351.1	–
293.15 K, x1 = 0.1024	–	–	1.527
293.15 K, x1 = 0.2	989.24	1345	–
293.15 K, x1 = 0.2162	–	–	1.341
293.15 K, x1 = 0.2991	–	1340	–
293.15 K, x1 = 0.3	1002.64	–	–
293.15 K, x1 = 0.3003	–	–	1.216
293.15 K, x1 = 0.4	1017.06	1335.5	–
293.15 K, x1 = 0.4076	–	–	1.072
293.15 K, x1 = 0.451	–	–	1.02
293.15 K, x1 = 0.4997	–	–	0.964
293.15 K, x1 = 0.4998	–	1331.9	–
293.15 K, x1 = 0.5	1032.73	–	–
293.15 K, x1 = 0.55	–	–	0.91
293.15 K, x1 = 0.6	1049.94	1329.2	–
293.15 K, x1 = 0.6026	–	–	0.859
293.15 K, x1 = 0.6998	–	–	0.775
293.15 K, x1 = 0.7	1068.86	1327.7	–
293.15 K, x1 = 0.7991	–	–	0.71
293.15 K, x1 = 0.8	–	1327.5	–
293.15 K, x1 = 0.8002	1089.69	–	–
293.15 K, x1 = 0.8999	1112.46	1330.3	–
293.15 K, x1 = 0.9001	–	–	0.663
293.15 K, x1 = 0.941	–	–	0.653
293.15 K, x1 = 0.9503	1124.81	1333.7	–
293.15 K, x1 = 1	1137.63	1340.2	0.648
298.15 K, x1 = 0.05	965.94	1338.1	–
298.15 K, x1 = 0.0506	–	–	1.466
298.15 K, x1 = 0.0998	971.79	1334.8	–
298.15 K, x1 = 0.1037	–	–	1.387
298.15 K, x1 = 0.2	984.22	1329.2	–
298.15 K, x1 = 0.2002	–	–	1.249
298.15 K, x1 = 0.2991	–	1324.1	–
298.15 K, x1 = 0.3	997.42	–	–
298.15 K, x1 = 0.3006	–	–	1.118
298.15 K, x1 = 0.4	1011.62	1319.6	–
298.15 K, x1 = 0.4052	–	–	0.994
298.15 K, x1 = 0.4509	–	–	0.944
298.15 K, x1 = 0.4998	–	1315.6	–
298.15 K, x1 = 0.5	1027.07	–	–
298.15 K, x1 = 0.5016	–	–	0.892
298.15 K, x1 = 0.5497	–	–	0.846
298.15 K, x1 = 0.5991	–	–	0.8
298.15 K, x1 = 0.6	1044.03	1312.6	–
298.15 K, x1 = 0.694	–	–	0.725
298.15 K, x1 = 0.7	1062.69	1310.7	–
298.15 K, x1 = 0.7953	–	–	0.666
298.15 K, x1 = 0.8	–	1310.6	–
298.15 K, x1 = 0.8002	1083.23	–	–
298.15 K, x1 = 0.8997	–	–	0.629
298.15 K, x1 = 0.8999	1105.69	1312.9	–
298.15 K, x1 = 0.9454	–	–	0.621
298.15 K, x1 = 0.9503	1117.91	1315.8	–
298.15 K, x1 = 1	1130.62	1320.4	0.619
303.15 K, x1 = 0.05	961.25	1321.7	–
303.15 K, x1 = 0.0585	–	–	1.328
303.15 K, x1 = 0.0998	966.98	1318.5	–
303.15 K, x1 = 0.1015	–	–	1.271
303.15 K, x1 = 0.1989	–	–	1.149
303.15 K, x1 = 0.2	979.15	1312.9	–
303.15 K, x1 = 0.2991	–	1307.4	–
303.15 K, x1 = 0.3	992.16	–	–
303.15 K, x1 = 0.3091	–	–	1.02
303.15 K, x1 = 0.3978	–	–	0.925
303.15 K, x1 = 0.4	1006.16	1302.5	–
303.15 K, x1 = 0.449	–	–	0.875
303.15 K, x1 = 0.4998	–	1298.1	0.828
303.15 K, x1 = 0.5	1021.4	–	–
303.15 K, x1 = 0.5549	–	–	0.782
303.15 K, x1 = 0.59	–	–	0.756
303.15 K, x1 = 0.6	1038.1	1294.5	–
303.15 K, x1 = 0.6977	–	–	0.684
303.15 K, x1 = 0.7	1056.45	1292.2	–
303.15 K, x1 = 0.7979	–	–	0.632
303.15 K, x1 = 0.8	–	1291.7	–
303.15 K, x1 = 0.8002	1076.63	–	–
303.15 K, x1 = 0.8999	1098.72	1293.4	–
303.15 K, x1 = 0.9037	–	–	0.594
303.15 K, x1 = 0.9503	1110.81	1295.1	–
303.15 K, x1 = 0.9508	–	–	0.585
303.15 K, x1 = 1	1123.6	1298.1	0.584
308.15 K, x1 = 0.05	956.53	1310.2	–
308.15 K, x1 = 0.0671	–	–	1.175
308.15 K, x1 = 0.0998	962.12	1307.4	–
308.15 K, x1 = 0.1029	–	–	1.134
308.15 K, x1 = 0.1995	–	–	1.025
308.15 K, x1 = 0.2	974.11	1301.4	–
308.15 K, x1 = 0.2991	–	1295.7	–
308.15 K, x1 = 0.3	986.95	–	–
308.15 K, x1 = 0.3053	–	–	0.917
308.15 K, x1 = 0.4	1000.76	1290.4	–
308.15 K, x1 = 0.4012	–	–	0.833
308.15 K, x1 = 0.4528	–	–	0.792
308.15 K, x1 = 0.4998	–	1285.6	–
308.15 K, x1 = 0.5	1015.8	–	–
308.15 K, x1 = 0.5078	–	–	0.75
308.15 K, x1 = 0.5514	–	–	0.719
308.15 K, x1 = 0.5981	–	–	0.689
308.15 K, x1 = 0.6	1032.3	1281.5	–
308.15 K, x1 = 0.6981	–	–	0.633
308.15 K, x1 = 0.7	1050.38	1278.6	–
308.15 K, x1 = 0.7954	–	–	0.594
308.15 K, x1 = 0.8	–	1277.7	–
308.15 K, x1 = 0.8002	1070.27	–	–
308.15 K, x1 = 0.8985	–	–	0.572
308.15 K, x1 = 0.8999	1092.11	1278.6	–
308.15 K, x1 = 0.9383	–	–	0.569
308.15 K, x1 = 0.9503	1104.13	1279.6	–
308.15 K, x1 = 1	1116.86	1281.2	0.563
313.15 K, x1 = 0.0498	–	–	1.055
313.15 K, x1 = 0.05	951.39	1293.9	–
313.15 K, x1 = 0.0998	956.87	1291.1	–
313.15 K, x1 = 0.1101	–	–	0.999
313.15 K, x1 = 0.2	968.71	1285.4	–
313.15 K, x1 = 0.2081	–	–	0.911
313.15 K, x1 = 0.2991	–	1279.7	–
313.15 K, x1 = 0.3	981.39	–	–
313.15 K, x1 = 0.3023	–	–	0.835
313.15 K, x1 = 0.4	995.04	1274.2	–
313.15 K, x1 = 0.4004	–	–	0.762
313.15 K, x1 = 0.4571	–	–	0.722
313.15 K, x1 = 0.4998	–	1269.3	–
313.15 K, x1 = 0.5	1009.9	–	–
313.15 K, x1 = 0.5015	–	–	0.693
313.15 K, x1 = 0.5566	–	–	0.659
313.15 K, x1 = 0.599	–	–	0.636
313.15 K, x1 = 0.6	1026.19	1265.1	–
313.15 K, x1 = 0.6995	–	–	0.589
313.15 K, x1 = 0.7	1044.07	1262.1	–
313.15 K, x1 = 0.8	–	1260.9	0.562
313.15 K, x1 = 0.8002	1063.69	–	–
313.15 K, x1 = 0.8851	–	–	0.555
313.15 K, x1 = 0.8999	1085.24	1261.5	–
313.15 K, x1 = 0.9387	–	–	0.553
313.15 K, x1 = 0.9503	1097.15	1262.2	–
313.15 K, x1 = 1	1109.87	1262.8	0.545
